{"source": "patent US20190314407A1", "about": "“COMPOSITIONS AND METHODS FOR THE EXPANSION OF HEMATOPOIETIC STEM AND PROGENITOR CELLS” (Magenta Therapeutics Inc., priority 2017, published 2019)", "key": {"NSG mice [1]": {"tested_on": "NSG mice", "assay": "Transplant of expanded cells into sub-lethally irradiated NSG mice, engraftment and editing rates by flow cytometry (Example 1)", "type": "in vivo, mouse", "settings": "for engraftment in NSG mice: relative to vehicle-cultured CB derived CD34+ cells", "procedure": "(§1) Methods. […] Cell number and immunophenotype were assessed by flow cytometry, and HSC function was evaluated by cell and molecular assays in vitro. The expanded cells were transplanted into sub-lethally irradiated NSG mice to evaluate engraftment potential in vivo. For editing studies, mPB and BM CD34+ cells were electroporated with CRISPR/Cas9 RNPs targeting the beta-2 microglobulin (B2M) cell surface protein. Editing rates were evaluated by flow cytometry based on loss of protein expression and TIDE analysis. Edited cells were expanded in the presence of AHR antagonist or vehicle and transplanted into NSG mice. The AHR antagonist used in the experiments described in this Example is Compound 26 herein. Engraftment and editing rates were evaluated by flow cytometry of the peripheral blood and bone marrow."}, "[2]": {"tested_on": "primary human CD34+ cells", "assay": "Ex vivo expansion of primary human CD34+ cells in the presence of cytokines (Example 1)", "type": "cell-based", "settings": "relative to vehicle-cultured CB derived CD34+ cells", "procedure": "as §1"}, "[3]": {"tested_on": "CD34+ cells from mPB and bone marrow (BM)", "assay": "Ex vivo expansion of lentivirally transduced or CRISPR/Cas9 B2M-edited CD34+ cells (Example 2)", "type": "cell-based, human", "settings": "AHR antagonist = Compound 26", "procedure": "Lentiviral Transduction: Cryopreserved CD34+ cells from mobilized peripheral blood (mPB) were thawed and cultured overnight in media with cytokines and either vehicle (DMSO) or the AHR antagonist (expanded). The following day, cells were plated on retronectin-coated plates and transduced with a lentiviral vector, containing a green fluorescent protein (GFP) transgene under the control of the MND promoter, at an MOI of 50 in the presence of vehicle or the AHR antagonist. 24 hours later, cells were harvested, washed, and resuspended in media with cytokines and the appropriate compound.\nCRISPR/Cas9 Editing and Expansion: Cryopreserved CD34+ cells from mPB and bone marrow (BM) were thawed and cultured overnight in media with cytokines and either vehicle or the AHR antagonist. Cells were electroporated with Cas9 protein (Aldevron) and synthetic, chemically-modified gRNA (Synthego) targeting beta-2-microglobulin (B2M) as a ribonucleotide protein (RNP)."}, "[4]": {"tested_on": "CD34+CD90+ mobilized peripheral blood cells", "assay": "Cell cycle phase of CD34+CD90+ cells in culture, mobilized peripheral blood (Example 5)", "type": "cell-based", "settings": "cytokines, same in presence or absence of Compound 26 (500 nM)"}, "[5]": {"tested_on": "mobilized peripheral blood (mPB) CD34+ cells", "assay": "Gene correction rate after prestimulation and electroporation with gRNA/Cas9 and oligonucleotide donor (Example 5)", "type": "cell-based", "settings": "mPB cells prestimulated 4 days in the presence of Compound 26 versus 1 day prior to electroporation; FIG. 13A", "procedure": "Mobilized peripheral blood (mPB) CD34+ or cord blood (CB) CD34+ cells were thawed and pre-stimulated, i.e., cultured, in serum-free media (SFEM media supplemented with cytokines SCF, IL6, TPO, and FLT3L) in the presence or absence of Compound 26 (500 nM). Cells were pre-stimulated 1, 2, 3, or 4 days prior to electroporation with gRNA/Cas9 and oligonucleotide donor. Cells were cultured for an additional 8 days after electroporation and profiled at 2, 4, 6, or 8 days post-electroporation using a Trucount-based method of HSC quantification of CD34, CD90, and CD45RA. Cells were subcultured to maintain cell density at less than 1×10^6 cells/mL. On day 8, genomic DNA was extracted from bulk cell cultures, and correction rate was assessed by qPCR. Number of corrected cells was determined by number of total cells at the indicated timepoint multiplied by the correction rate for that pre-stimulation condition."}, "[6]": {"tested_on": "mPB and BM derived CD34+ cells", "assay": "Expansion of CRISPR/Cas9 B2M-edited mPB and BM CD34+ cells (Example 1)", "type": "cell-based, human", "settings": "7 days of expansion, AHR antagonist = Compound 26", "procedure": "as §1"}, "[7]": {"tested_on": "CD34+CD90+ cord blood cells", "assay": "Cell cycle phase of CD34+CD90+ cells in culture, cord blood (Example 5)", "type": "cell-based", "settings": "cytokines, same in presence or absence of Compound 26 (500 nM)"}, "NSG mice [8]": {"tested_on": "NSG mice", "assay": "Transplant of gene-modified, expanded CD34+ cells into NSG mice (Example 2)", "type": "in vivo, mouse", "settings": "AHR antagonist = Compound 26", "source_text": "Transplant into NSG mice: All of the progeny from cultured cells were transplanted into sub-lethally irradiated, female, 6-8 week old NSG mice. Engraftment and transduction/editing rates were monitored monthly by flow cytometry. “Minimally manipulated” controls were transplanted one day after editing for a total culture time of 2 days."}, "AHR": {"molecular_target": "T1, AHR (Homo sapiens, UniProt P35869)", "T1 sequence (P35869 11-848)": "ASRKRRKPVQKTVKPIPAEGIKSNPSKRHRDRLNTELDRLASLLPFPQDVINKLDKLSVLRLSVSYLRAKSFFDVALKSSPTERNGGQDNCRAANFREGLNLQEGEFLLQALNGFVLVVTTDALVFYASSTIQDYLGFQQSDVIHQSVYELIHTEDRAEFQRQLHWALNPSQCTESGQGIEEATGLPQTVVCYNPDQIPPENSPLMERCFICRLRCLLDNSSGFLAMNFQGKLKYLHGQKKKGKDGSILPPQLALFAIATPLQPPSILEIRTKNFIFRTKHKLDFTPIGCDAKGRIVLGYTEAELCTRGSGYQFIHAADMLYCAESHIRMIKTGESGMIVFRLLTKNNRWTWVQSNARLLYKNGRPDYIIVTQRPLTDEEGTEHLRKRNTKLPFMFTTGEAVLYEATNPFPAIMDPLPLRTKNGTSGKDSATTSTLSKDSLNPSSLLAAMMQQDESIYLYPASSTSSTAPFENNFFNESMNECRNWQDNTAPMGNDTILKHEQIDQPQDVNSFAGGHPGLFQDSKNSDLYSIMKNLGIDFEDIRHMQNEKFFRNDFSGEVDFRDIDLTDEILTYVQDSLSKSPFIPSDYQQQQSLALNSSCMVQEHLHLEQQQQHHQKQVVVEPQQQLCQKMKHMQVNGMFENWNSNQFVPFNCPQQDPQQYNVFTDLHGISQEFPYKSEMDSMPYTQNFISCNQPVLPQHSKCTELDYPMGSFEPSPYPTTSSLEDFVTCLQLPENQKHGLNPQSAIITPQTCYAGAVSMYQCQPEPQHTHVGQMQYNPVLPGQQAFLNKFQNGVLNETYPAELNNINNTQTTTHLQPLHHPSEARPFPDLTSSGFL", "assay": "Dioxin response element luciferase reporter assay", "type": "cell-based"}, "[9]": {"settings": "mPB CD34+ cells, 7 days culture, FIGS. 2A-2D"}, "[10]": {"settings": "B2M-edited expanded cells, AHR antagonist = Compound 26"}}, "data": [{"smiles": "CC(C)n1cnc2c(NCCc3ccc(O)cc3)nc(-c3csc4ccccc34)nc21", "note": "[SR1, reference compound]", "values": [{"measurement": "engraftment in NSG mice", "setting": "NSG mice [1]", "value": "significant increase"}, {"measurement": "increase in CD34+ number", "setting": "[2]", "value": 6, "unit": "fold"}]}, {"smiles": "COCCC(C)c1cnc2c(NCCc3c[nH]c4ccccc34)nc(-c3cncc(F)c3)cn12", "note": "(stereo not shown) [Compound 26]", "values": [{"measurement": "quantity of GFP+CD34+CD90+ cells", "setting": "[3]; GFP lentivirus-transduced mPB CD34+ cells, 7 days, versus vehicle or no treatment", "value": "increased the quantity of GFP+CD34+CD90+ cells to a greater extent than vehicle treatment"}, {"measurement": "editing rates", "setting": "[3]; both mPB and BM CD34+ cells, CRISPR/Cas9 B2M", "value": 80, "unit": "%"}, {"measurement": "quantities of total cells, CD34+ cells, and CD34+CD90+ cells relative to vehicle-treated and untreated cells", "setting": "[3]; cells subject to CRISPR/Cas9-mediated B2M editing, FIGS. 5A-5E", "value": "substantially higher quantities"}, {"measurement": "quantities of total cells, CD34+ cells, and CD34+CD90+ cells relative to vehicle-treated and untreated cells", "setting": "[3]; cells subject to lentiviral transduction, FIGS. 3A-3E", "value": "substantially higher quantities"}, {"measurement": "quantity of CD34+CD90+ cells relative to vehicle-treated and untreated cells", "setting": "[3]; [9]", "value": "substantial increase"}, {"measurement": "total quantity of cells relative to vehicle-treated cells", "setting": "[3]; [9]", "value": "increase in the total quantity of cells"}, {"measurement": "human cells in the periphery of the mice showing loss of target protein (average)", "setting": "NSG mice [1]; [10]", "value": "> 75", "unit": "%"}, {"measurement": "increase in engraftment compared to mice receiving vehicle-treated cells", "setting": "NSG mice [1]; [10]", "value": "greater than 2 fold"}, {"measurement": "engraftment in NSG mice", "setting": "NSG mice [1]", "value": "significant increase"}, {"measurement": "days in culture after which substantially all CD34+CD90+ cells exit the G0 phase and enter the replicative cell cycle", "setting": "[4]", "value": "about 3 days"}, {"measurement": "rates of gene correction", "setting": "[5]", "value": "higher rates of gene correction"}, {"measurement": "increase in CD34+ number", "setting": "[2]", "value": 6, "unit": "fold"}, {"measurement": "CD34+CD90+ cells in expanded culture versus vehicle-treated cells", "setting": "[6]; B2M-edited cells", "value": 3.4, "unit": "fold"}, {"measurement": "loss of the target protein (B2M)", "setting": "[6]; mPB and BM CD34+ cells edited with CRISPR/Cas9 RNPs", "value": 84, "unit": "%"}, {"measurement": "days in culture after which substantially all CD34+CD90+ cells exit the G0 phase and enter the replicative cell cycle", "setting": "[7]", "value": "about 3 days"}, {"measurement": "retention of B2M− phenotype relative to vehicle-treated cells following transplantation", "setting": "NSG mice [8]; NSG mice", "value": "greater retention"}, {"measurement": "improvement in engraftment compared to vehicle-cultured cells", "setting": "NSG mice [8]; edited, expanded cells, both the PB and BM of mice after 16 weeks", "value": "greater than 2 fold"}, {"measurement": "engraftment rates relative to minimally-manipulated cells", "setting": "NSG mice [8]; expanded, edited mPB and BM cells, FIGS. 7A-7N", "value": "higher engraftment rates"}, {"measurement": "editing rates following transplantation into NSG mice", "setting": "NSG mice [8]; mPB and BM CD34+ cells", "value": "maintained"}, {"measurement": "engraftment compared to minimally manipulated and vehicle controls", "setting": "NSG mice [8]; mPB and BM hematopoietic stem cells transplanted into NSG mice", "value": "increased engraftment"}, {"measurement": "engraftment rates relative to vehicle-cultured cells", "setting": "NSG mice [8]; transduced/edited, expanded mPB cells in NSG mice", "value": "higher engraftment rates"}, {"measurement": "AHR antagonism in the dioxin response element luciferase reporter assay", "setting": "AHR", "value": "complete AHR antagonism"}, {"measurement": "increase in potency compared to SR1", "setting": "AHR; dioxin response element luciferase reporter assay", "value": 12, "unit": "fold"}]}]}
